The source of these data is article PMC5746060, “General and Modular Strategy for Designing Potent, Selective, and Pharmacologically Compliant Inhibitors of Rhomboid Proteases” (Cell Chemical Biology, 2017).

Where “and” joins values, the source holds several entries; their conditions need not be identical. Equal values may be shown once. Read-outs that look alike come from different tables or passages of the source. Starred links: 1 amine or outer side, 2 acyl side, 3 side chain; linkers in the order of their positions; H or OH if unused. Non-standard residues stand in square brackets, D forms with d. Residues, ends and D or L forms follow the SMILES beside them. *: point of attachment. NH(4-phenylbutyl) = c1ccc(CCCCN*)cc1; X1 = C[C@H](N[*:1])C(=O)C(=O)[*:2]; NHPhenethyl = c1ccc(CCN*)cc1

The target of one assay is T1, rhomboid protease GlpG (Escherichia coli, UniProt P09391).
T1 construct: made in house; host or cells: E. coli C41(DE3)
The assay can be described thus: progress-curve analysis of slow-binding inhibition of GlpG (Ki, kon, koff, modality). The assay is classed as biochemical. As to conditions: for koff: Table 1; for Ki: true inhibitory constant, equals Kiapp (non-competitive). On the procedure: Figure 4 Mechanism of Inhibition of Rhomboid Protease GlpG by Peptidyl Ketoamides Analyzed Using Fluorogenic Transmembrane Peptide Substrates (A) Progress curves in the presence of increasing concentrations of compound 10 show biphasic character, which is typical for slow-binding inhibitors ([Copeland, 2013a], [Morrison, 1982]). GlpG (0.5 nM) was incubated with 25 μM substrate KSp93 in the presence of 0.05% (w/v) DDM and 0–1,333 nM 10. Fluorescence at 493 nm was followed to monitor substrate cleavage. (B) Biphasic progress curves characterized by an initial reaction rate (vi) and steady state reaction rate (vs). The progress curve at 1,333 nM compound 10 from the experiment in (A) is shown in detail, and both reaction rates obtained from non-linear regression into Equation (1) are shown as dotted lines. (C) Reversibility of inhibition by ketoamides was assessed by the rapid dilution method ([Harper et al., 1985], [Harper and Powers, 1985]). […] This solution was then rapidly diluted 100-fold either into the reaction buffer containing 10 μM substrate KSp64 ([Ticha et al., 2017]) (yielding final 10 nM inhibitor) or into the reaction buffer with 10 μM substrate KSp64 and 1,000 nM 10. For comparison, we used β-lactam L29 ([Pierrat et al., 2011]) at 1 μM and isocoumarin JLK6 ([Vinothkumar et al., 2010]) at 10 μM as known reversible and irreversible inhibitors of rhomboid proteases, respectively. Activity recovery was followed by measuring fluorescence over the course of 120 min with excitation at 553 nm and emission at 583 nm. (D) Progress curves of KSp93 cleavage at increasing concentrations of 10 measured under (A) were analyzed by non-linear regression as described for slow-binding inhibition ([Copeland, 2013a], [Morrison, 1982]) using GraphPad Prism version 7.02 for Windows (GraphPad Software, La Jolla, California, USA) to yield the rate constant for the onset of inhibition, kobs. […] Michaelis curves at the indicated inhibitor concentrations were measured by plotting vS (measured as in Figure 4B) against substrate concentration using 1 nM GlpG, 0.15% (w/v) DDM and highly sensitive substrate KSp96. […] The apparent inhibitory constants Kiapp (blue-red striped columns) and the constituent rate constants kon (red columns) and koff (blue columns) were determined from progress curve analysis as shown in (A and C) (note that Kiapp = koff/kon). […] TEXT PRINTED IN THE PICTURE: (D) compound 10: Ki^app = (123±47) nM; kon = (3.4±0.2)·10^-5 (nM^-1·min^-1); koff = (4.2±1.4)·10^-3 (min^-1) DOUBTS OF THE COPYIST ABOUT THIS PICTURE: compound 10, kon: the exponent is in very small print, read as -5 but could be -6 or -8 / compound 10, koff: the exponent is in very small print, read as -3 but could be -5 […]

Another assay concerns the target T2, endogenous GlpG (Escherichia coli, UniProt P09391).
T2 construct: E. coli expressing endogenous levels of GlpG; endogenous in cells; host or cells: E. coli K12 NR698 (permeabilised outer membrane)
The assay can be described thus: inhibition of endogenous GlpG in live E. coli (LacYTM2 substrate cleavage, western blot). Type of assay: cell-based. The following applies: live E. coli NR698, substrate MBP-FLAG-LacYTM2-Trx; read-out: IC50 In Vivo (GlpG). On the procedure:
The substrate MBP-FLAG-LacYTM2-Trx ([Strisovsky et al., 2009]) was expressed in wild-type E. coli NR698 with genetically permeabilized outer membrane ([Ruiz et al., 2005]) in the presence of increasing concentrations of inhibitors as described in STAR Methods. Substrate cleavage was measured in cell lysates by immunoblotting for FLAG and quantified using near-infrared fluorescence. The reported in vivo IC50 values are best-fit means with SD representative of 2–3 measurements. DMSO, dimethylsulfoxide vehicle control; KO, E. coli glpG::tet. […] The substrate AmyESP-MBP-FLAG-LacYTM2-Trx-HA was expressed in Bacillus subtilis 168 (ydcA::neo, xdkE::AmyESP-MBP-LacYTM2-Trx(erm, lin)) (BS87) in the presence of increasing concentrations of inhibitors as described in STAR Methods. Substrate cleavage was detected in cell lysates by immunoblotting for FLAG and detection by near-infrared fluorescence. […] This treatment was necessary because the specific cleavage product could not be resolved sufficiently well from the non-specific bands to be integrated separately. DMSO, dimethylsulfoxide vehicle control; YqgP KO, Bacillus subtilis 168 (ydcA::neo, yqgP::tet, xdkE::AmyESP-MBP-LacYTM2-Trx(erm, lin)) (BS88).
Background: A western blot detects proteins with antibodies after separation by electrophoresis.

For orientation: koff means the rate constant with which the complex falls apart. Broadly, the IC50 is the point on the concentration scale where inhibition reaches its midpoint.

T1 sequence (P09391 whole entry): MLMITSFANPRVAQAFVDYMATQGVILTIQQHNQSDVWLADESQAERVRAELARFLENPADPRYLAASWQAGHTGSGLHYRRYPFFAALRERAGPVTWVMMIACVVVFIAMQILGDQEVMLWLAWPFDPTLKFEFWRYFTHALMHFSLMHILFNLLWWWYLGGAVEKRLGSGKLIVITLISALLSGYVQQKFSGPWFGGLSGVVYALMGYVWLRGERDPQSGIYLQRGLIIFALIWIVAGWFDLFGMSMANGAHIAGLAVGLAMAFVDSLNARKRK
T2 sequence (P09391 whole entry): as above

Turning to `CC(=O)N[C@@H](CCCNC(=N)N)C(=O)N[C@H](C(=O)N[C@@H](CCCNC(=N)N)C(=O)N[C@@H](Cc1c[nH]cn1)C(=O)N[C@@H](C)C(=O)C(=O)NCCc1ccccc1)C(C)C` [compound 9, Ac-RVRHA-CONH-phenylethyl] (Ac-RVRH[X1]-NHPhenethyl), on rhomboid protease GlpG, the koff was 0.0002 s⁻¹. In addition, on rhomboid protease GlpG (read-out: Ki), the Ki was 219 nM and 220 nM. Further, at endogenous GlpG, the IC50 was 8.8 ± 0.4 nM.

`CC(=O)N[C@@H](CCCNC(=N)N)C(=O)N[C@H](C(=O)N[C@@H](CCCNC(=N)N)C(=O)N[C@@H](Cc1c[nH]cn1)C(=O)N[C@@H](C)C(=O)C(=O)NCCCCc1ccccc1)C(C)C` [compound 11, Ac-RVRHA-CONH-phenylbutyl] (Ac-RVRH[X1]-{NH(4-phenylbutyl)}) gave a Ki at rhomboid protease GlpG (Ki) of 45 ± 8 nM. At rhomboid protease GlpG, the koff is 6.5e-05 s⁻¹. The IC50 on endogenous GlpG came out at 2.7 ± 0.1 nM.
